Measured values: ChEMBL document CHEMBL1148862, “Evaluation of the anti-hepatitis C virus effect of novel potent, selective, and orally bioavailable JNK and VEGFR kinase inhibitors” (Bioorg Med Chem Lett, 2007)
The source made the active and inactive calls. The calls are words filed in the database; no cut-off is given here.

Columns and labels:
Hepatitis C virus [1] = assay: Antiviral activity against HCV ET replicon with NS3 E1202G, T1280I mutation and NS4B K1846 mutation; type: functional, organism-based; conditions: Hepacivirus hominis
Hepatitis C virus [2] = assay: Antiviral activity against HCV in Huh7-Rep cells by luciferase assay; type: functional, organism-based, Hepacivirus hominis
[3] = Cytotoxicity against MT4 cells by luciferase assay; type: cell-based; conditions: human
[4] = Cytotoxicity against Huh7 cells by luciferase assay; type: cell-based, Huh-7; conditions: human
[5] = tested on: Bovine viral diarrhea virus 1; assay: Antiviral activity against BVDV upto 100 uM; type: functional, organism-based
[6] = target: Mitogen-activated protein kinase 9 (Homo sapiens, UniProt P45984); assay: Inhibition of human JNK2
[7] = target: Mitogen-activated protein kinase 10 (Homo sapiens, UniProt P53779); assay: Inhibition of human JNK3
[8] = target: Vascular endothelial growth factor receptor 1 (Homo sapiens, UniProt P17948); assay: Inhibition of human VEGFR1
[9] = target: Vascular endothelial growth factor receptor 2 (Homo sapiens, UniProt P35968); assay: Inhibition of human VEGFR2
[10] = target: Vascular endothelial growth factor receptor 3 (Homo sapiens, UniProt P35916); assay: Inhibition of human VEGFR3
Hepatitis C virus [11] = assay: Antiviral activity against HCV subgenomic 1a replicon upto 32 uM; type: functional, organism-based; conditions: Hepacivirus hominis; subtype 1a
[12] = Drug level in Swiss SPF (CD1) mouse plasma at 20 mg/kg, po after 0.5 hrs; type: ADME, organism-based; parameters: dose 20 mg/kg, route oral
[13] = Drug level in Swiss SPF (CD1) mouse heart at 20 mg/kg, po after 0.5 hrs; type: ADME, organism-based; parameters: dose 20 mg/kg, route oral; conditions: read-out: Drug uptake
[14] = Drug level in Swiss SPF (CD1) mouse liver at 20 mg/kg, po after 0.5 hrs; type: ADME, organism-based; parameters: dose 20 mg/kg, route oral; conditions: read-out: Drug uptake
[15] = Drug level in Swiss SPF (CD1) mouse plasma at 20 mg/kg, po after 1 hr; type: ADME, organism-based; parameters: dose 20 mg/kg, route oral
[16] = Drug level in Swiss SPF (CD1) mouse heart at 20 mg/kg, po after 1 hr; type: ADME, organism-based; parameters: dose 20 mg/kg, route oral; conditions: read-out: Drug uptake
[17] = Drug level in Swiss SPF (CD1) mouse liver at 20 mg/kg, po after 1 hr; type: ADME, organism-based; parameters: dose 20 mg/kg, route oral; conditions: read-out: Drug uptake
[18] = Drug level in Swiss SPF (CD1) mouse plasma at 20 mg/kg, po after 2 hrs; type: ADME, organism-based; parameters: dose 20 mg/kg, route oral
[19] = Drug level in Swiss SPF (CD1) mouse heart at 20 mg/kg, po after 2 hrs; type: ADME, organism-based; parameters: dose 20 mg/kg, route oral; conditions: read-out: Drug uptake
[20] = Drug level in Swiss SPF (CD1) mouse plasma at 20 mg/kg, po after 4 hrs; type: ADME, organism-based; parameters: dose 20 mg/kg, route oral
[21] = Drug level in Swiss SPF (CD1) mouse liver at 20 mg/kg, po after 2 hrs; type: ADME, organism-based; parameters: dose 20 mg/kg, route oral; conditions: read-out: Drug uptake
[22] = Drug level in Swiss SPF (CD1) mouse heart at 20 mg/kg, po after 4 hrs; type: ADME, organism-based; parameters: dose 20 mg/kg, route oral; conditions: read-out: Drug uptake
[23] = Drug level in Swiss SPF (CD1) mouse liver at 20 mg/kg, po after 4 hrs; type: ADME, organism-based; parameters: dose 20 mg/kg, route oral; conditions: read-out: Drug uptake
[24] = Drug level in Swiss SPF (CD1) mouse plasma at 20 mg/kg, po after 8 hrs; type: ADME, organism-based; parameters: dose 20 mg/kg, route oral
[25] = Drug level in Swiss SPF (CD1) mouse heart at 20 mg/kg, po after 8 hrs; type: ADME, organism-based; parameters: dose 20 mg/kg, route oral; conditions: read-out: Drug uptake
[26] = Drug level in Swiss SPF (CD1) mouse liver at 20 mg/kg, po after 8 hrs; type: ADME, organism-based; parameters: dose 20 mg/kg, route oral; conditions: read-out: Drug uptake
[27] = Drug level in Swiss SPF (CD1) mouse plasma at 20 mg/kg, po after 24 hrs; type: ADME, organism-based; parameters: dose 20 mg/kg, route oral
[28] = Drug level in Swiss SPF (CD1) mouse heart at 20 mg/kg, po after 24 hrs; type: ADME, organism-based; parameters: dose 20 mg/kg, route oral; conditions: read-out: Drug uptake
[29] = Cmax in Swiss SPF (CD1) mouse plasma at 20 mg/kg, po; type: ADME, organism-based; parameters: dose 20 mg/kg, route oral
[30] = Cmax in Swiss SPF (CD1) mouse heart at 20 mg/kg, po; type: ADME, organism-based; parameters: dose 20 mg/kg, route oral
[31] = Cmax in Swiss SPF (CD1) mouse liver at 20 mg/kg, po; type: ADME, organism-based; parameters: dose 20 mg/kg, route oral
[32] = Tmax in Swiss SPF (CD1) mouse plasma at 20 mg/kg, po; type: ADME, organism-based; parameters: dose 20 mg/kg, route oral
[33] = Tmax in Swiss SPF (CD1) mouse heart at 20 mg/kg, po; type: ADME, organism-based; parameters: dose 20 mg/kg, route oral
[34] = Tmax in Swiss SPF (CD1) mouse liver at 20 mg/kg, po; type: ADME, organism-based; parameters: dose 20 mg/kg, route oral
[35] = Half life in Swiss SPF (CD1) mouse plasma at 20 mg/kg, po after 2 to 8 hrs; type: ADME, organism-based; parameters: dose 20 mg/kg, route oral
[36] = Half life in Swiss SPF (CD1) mouse heart at 20 mg/kg, po after 2 to 8 hrs; type: ADME, organism-based; parameters: dose 20 mg/kg, route oral
[37] = Half life in Swiss SPF (CD1) mouse liver at 20 mg/kg, po after 2 to 8 hrs; type: ADME, organism-based; parameters: dose 20 mg/kg, route oral
[38] = AUC (0 to 8 hrs) in Swiss SPF (CD1) mouse plasma at 20 mg/kg, po; type: ADME, organism-based; parameters: time < 8 hr, dose 20 mg/kg, route oral
[39] = AUC (0 to 8 hrs) in Swiss SPF (CD1) mouse heart at 20 mg/kg, po; type: ADME, organism-based; parameters: time < 8 hr, dose 20 mg/kg, route oral
[40] = AUC (0 to 8 hrs) in Swiss SPF (CD1) mouse liver at 20 mg/kg, po; type: ADME, organism-based; parameters: time < 8 hr, dose 20 mg/kg, route oral
[41] = AUC (0 to infinity) in Swiss SPF (CD1) mouse plasma at 20 mg/kg, po; type: ADME, organism-based; parameters: time infinity, dose 20 mg/kg, route oral
[42] = AUC (0 to infinity) in Swiss SPF (CD1) mouse heart at 20 mg/kg, po; type: ADME, organism-based; parameters: time infinity, dose 20 mg/kg, route oral
[43] = AUC (0 to infinity) in Swiss SPF (CD1) mouse liver at 20 mg/kg, po; type: ADME, organism-based; parameters: time infinity, dose 20 mg/kg, route oral
Hepatitis C virus [44] = assay: Antiviral activity against HCV subgenomic 1b replicon upto 32 uM; type: functional, organism-based; conditions: Hepacivirus hominis; genotype 1b
[45] = Inhibition of HCV NS5B polymerase; parameters: species or system Hepacivirus hominis
[46] = Inhibition of HCV NS3/4A protease; parameters: species or system Hepacivirus hominis
[47] = target: Mitogen-activated protein kinase 8 (Homo sapiens, UniProt P45983); assay: Inhibition of JNK1
TGF-beta receptor type-1 = target: T1, TGF-beta receptor type-1 (Homo sapiens, UniProt P36897)
T1 sequence (P36897 whole entry): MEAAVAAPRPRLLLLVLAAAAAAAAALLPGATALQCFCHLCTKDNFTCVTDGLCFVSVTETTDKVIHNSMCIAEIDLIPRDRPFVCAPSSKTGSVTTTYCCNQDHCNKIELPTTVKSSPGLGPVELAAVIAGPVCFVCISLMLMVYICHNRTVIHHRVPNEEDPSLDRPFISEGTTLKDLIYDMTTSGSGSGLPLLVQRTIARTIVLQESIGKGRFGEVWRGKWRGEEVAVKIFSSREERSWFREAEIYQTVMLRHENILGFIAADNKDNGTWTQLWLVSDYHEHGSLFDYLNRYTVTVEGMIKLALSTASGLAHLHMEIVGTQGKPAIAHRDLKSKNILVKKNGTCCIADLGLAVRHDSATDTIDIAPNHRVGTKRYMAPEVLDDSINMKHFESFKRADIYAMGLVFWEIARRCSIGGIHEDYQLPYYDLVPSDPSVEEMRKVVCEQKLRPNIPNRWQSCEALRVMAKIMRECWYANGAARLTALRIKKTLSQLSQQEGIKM

Sequence of Vascular endothelial growth factor receptor 1 (P17948 whole entry): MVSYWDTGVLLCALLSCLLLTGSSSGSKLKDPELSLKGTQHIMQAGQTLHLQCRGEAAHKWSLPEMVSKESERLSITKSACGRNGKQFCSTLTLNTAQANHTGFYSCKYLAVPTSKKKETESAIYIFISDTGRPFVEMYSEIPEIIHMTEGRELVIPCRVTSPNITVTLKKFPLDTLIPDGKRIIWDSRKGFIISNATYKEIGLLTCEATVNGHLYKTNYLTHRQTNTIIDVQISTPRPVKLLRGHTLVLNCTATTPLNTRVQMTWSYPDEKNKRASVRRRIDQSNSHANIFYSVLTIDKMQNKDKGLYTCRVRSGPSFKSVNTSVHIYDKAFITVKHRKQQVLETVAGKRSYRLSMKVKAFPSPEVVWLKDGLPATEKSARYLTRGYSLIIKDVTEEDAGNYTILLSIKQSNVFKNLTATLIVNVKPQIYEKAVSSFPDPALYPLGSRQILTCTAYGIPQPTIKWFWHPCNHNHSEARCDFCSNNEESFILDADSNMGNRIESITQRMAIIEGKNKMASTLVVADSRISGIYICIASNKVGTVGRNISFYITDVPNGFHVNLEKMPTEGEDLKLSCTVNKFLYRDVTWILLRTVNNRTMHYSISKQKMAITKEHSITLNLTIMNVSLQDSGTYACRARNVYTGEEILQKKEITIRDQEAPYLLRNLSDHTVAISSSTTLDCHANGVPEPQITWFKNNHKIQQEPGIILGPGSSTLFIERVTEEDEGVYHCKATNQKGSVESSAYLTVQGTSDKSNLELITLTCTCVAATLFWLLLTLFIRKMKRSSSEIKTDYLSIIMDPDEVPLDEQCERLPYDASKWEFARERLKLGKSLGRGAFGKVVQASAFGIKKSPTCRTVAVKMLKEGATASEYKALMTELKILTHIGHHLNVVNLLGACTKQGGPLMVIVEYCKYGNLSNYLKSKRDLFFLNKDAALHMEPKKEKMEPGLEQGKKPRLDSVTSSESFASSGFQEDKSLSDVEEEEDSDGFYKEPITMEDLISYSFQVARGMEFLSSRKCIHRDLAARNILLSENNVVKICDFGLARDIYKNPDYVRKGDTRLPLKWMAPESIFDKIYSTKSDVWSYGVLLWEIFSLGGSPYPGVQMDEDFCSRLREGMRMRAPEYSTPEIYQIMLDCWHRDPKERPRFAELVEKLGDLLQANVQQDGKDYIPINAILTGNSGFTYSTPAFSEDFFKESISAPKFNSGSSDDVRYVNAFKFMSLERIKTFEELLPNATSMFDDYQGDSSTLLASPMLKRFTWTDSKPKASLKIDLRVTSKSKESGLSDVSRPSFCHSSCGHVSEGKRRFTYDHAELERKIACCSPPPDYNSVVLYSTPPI
Sequence of Mitogen-activated protein kinase 9 (P45984 whole entry): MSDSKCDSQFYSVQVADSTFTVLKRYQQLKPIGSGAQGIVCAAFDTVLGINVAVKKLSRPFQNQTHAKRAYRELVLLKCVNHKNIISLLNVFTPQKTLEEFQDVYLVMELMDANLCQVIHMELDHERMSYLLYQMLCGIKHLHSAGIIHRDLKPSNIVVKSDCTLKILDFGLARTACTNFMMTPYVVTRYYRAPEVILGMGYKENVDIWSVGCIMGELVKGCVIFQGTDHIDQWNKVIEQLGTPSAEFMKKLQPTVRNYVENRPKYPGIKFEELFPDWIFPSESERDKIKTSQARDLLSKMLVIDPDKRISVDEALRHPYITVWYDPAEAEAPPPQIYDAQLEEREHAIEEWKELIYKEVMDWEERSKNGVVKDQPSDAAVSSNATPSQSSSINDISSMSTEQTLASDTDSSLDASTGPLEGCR
Sequence of Vascular endothelial growth factor receptor 3 (P35916 whole entry): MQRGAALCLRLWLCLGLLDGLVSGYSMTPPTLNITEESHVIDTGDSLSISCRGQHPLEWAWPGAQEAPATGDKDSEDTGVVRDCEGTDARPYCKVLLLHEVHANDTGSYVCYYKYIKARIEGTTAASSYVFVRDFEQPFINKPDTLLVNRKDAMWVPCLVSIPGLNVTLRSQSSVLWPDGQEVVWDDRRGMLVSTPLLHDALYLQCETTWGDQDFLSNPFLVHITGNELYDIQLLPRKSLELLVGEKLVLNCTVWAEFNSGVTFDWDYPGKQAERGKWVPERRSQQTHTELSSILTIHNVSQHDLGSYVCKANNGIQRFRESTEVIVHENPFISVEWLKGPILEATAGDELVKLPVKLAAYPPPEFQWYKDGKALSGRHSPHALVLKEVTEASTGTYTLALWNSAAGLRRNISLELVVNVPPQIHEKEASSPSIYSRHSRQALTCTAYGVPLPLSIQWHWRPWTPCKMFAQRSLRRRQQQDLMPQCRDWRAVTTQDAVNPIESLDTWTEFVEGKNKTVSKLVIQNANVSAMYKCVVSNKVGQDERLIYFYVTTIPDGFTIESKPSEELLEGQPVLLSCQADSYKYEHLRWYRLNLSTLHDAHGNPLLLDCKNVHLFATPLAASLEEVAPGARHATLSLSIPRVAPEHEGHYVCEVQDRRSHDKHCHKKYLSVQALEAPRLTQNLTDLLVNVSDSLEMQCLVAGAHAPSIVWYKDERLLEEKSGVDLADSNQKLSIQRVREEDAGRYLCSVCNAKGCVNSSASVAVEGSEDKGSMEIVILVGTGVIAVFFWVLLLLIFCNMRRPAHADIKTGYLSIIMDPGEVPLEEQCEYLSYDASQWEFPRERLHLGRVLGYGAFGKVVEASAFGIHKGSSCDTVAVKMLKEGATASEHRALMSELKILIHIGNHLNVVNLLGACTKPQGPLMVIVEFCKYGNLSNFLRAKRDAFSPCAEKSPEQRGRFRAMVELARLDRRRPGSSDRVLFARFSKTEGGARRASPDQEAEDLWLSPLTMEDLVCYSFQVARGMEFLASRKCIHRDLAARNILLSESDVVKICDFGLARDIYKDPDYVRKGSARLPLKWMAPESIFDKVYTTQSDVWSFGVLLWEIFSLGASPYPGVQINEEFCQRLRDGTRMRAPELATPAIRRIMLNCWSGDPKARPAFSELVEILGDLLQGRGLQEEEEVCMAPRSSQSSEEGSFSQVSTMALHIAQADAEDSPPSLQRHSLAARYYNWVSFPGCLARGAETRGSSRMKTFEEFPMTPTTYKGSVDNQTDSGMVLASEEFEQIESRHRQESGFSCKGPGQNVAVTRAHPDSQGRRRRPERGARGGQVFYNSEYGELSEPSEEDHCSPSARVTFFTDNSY
Sequence of Mitogen-activated protein kinase 8 (P45983 whole entry): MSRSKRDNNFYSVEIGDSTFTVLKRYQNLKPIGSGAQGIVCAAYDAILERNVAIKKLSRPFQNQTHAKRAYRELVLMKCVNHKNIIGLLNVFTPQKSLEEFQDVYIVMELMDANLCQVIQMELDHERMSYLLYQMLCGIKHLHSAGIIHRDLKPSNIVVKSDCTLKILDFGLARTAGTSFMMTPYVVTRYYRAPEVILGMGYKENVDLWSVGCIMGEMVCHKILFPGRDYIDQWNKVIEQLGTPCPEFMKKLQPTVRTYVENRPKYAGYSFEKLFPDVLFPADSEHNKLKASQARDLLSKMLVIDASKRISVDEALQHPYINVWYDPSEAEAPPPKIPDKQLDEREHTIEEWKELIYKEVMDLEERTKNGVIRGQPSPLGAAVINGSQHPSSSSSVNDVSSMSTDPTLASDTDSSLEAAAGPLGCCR
Sequence of Mitogen-activated protein kinase 10 (P53779 whole entry): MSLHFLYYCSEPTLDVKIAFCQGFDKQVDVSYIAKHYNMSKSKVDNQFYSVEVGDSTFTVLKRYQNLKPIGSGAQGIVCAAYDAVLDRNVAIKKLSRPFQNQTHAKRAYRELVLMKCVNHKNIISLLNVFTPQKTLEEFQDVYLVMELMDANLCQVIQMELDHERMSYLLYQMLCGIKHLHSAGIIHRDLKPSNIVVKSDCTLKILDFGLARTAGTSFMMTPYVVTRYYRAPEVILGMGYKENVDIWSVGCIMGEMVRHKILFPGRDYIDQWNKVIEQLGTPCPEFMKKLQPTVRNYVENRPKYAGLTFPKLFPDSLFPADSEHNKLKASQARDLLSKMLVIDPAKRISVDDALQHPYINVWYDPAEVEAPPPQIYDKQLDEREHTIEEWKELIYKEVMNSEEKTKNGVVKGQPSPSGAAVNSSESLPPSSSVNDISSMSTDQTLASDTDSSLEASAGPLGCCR

In the case of `O=C(NCCCN1CCCC1=O)c1cnccc1Nc1nc(-c2cc(Br)ccc2F)nc2nccnc12`, the Activity (Hepatitis C virus [1]) is reported as “Active”, the EC50 (Hepatitis C virus [2]) is reported as 64 nM and the CC50 [3] is reported as greater than 32 µM. For the same compound, the CC50 [4] was greater than 32 µM, the Activity [5] was “inactive” and the IC50 [6] was 37 nM. It also gave an IC50 [7] of 59 nM, an IC50 [8] of 47 nM and an IC50 [9] of 140 nM. The IC50 [10] was 123 nM, the Activity (Hepatitis C virus [11]) was “inactive” and the concentration at 0.5 h [12] was 220 ng/mL. The concentration at 0.5 h [13] was 678 ng/mL, the concentration at 0.5 h [14] was 4060 ng/mL and the concentration at 1 h [15] was 166 ng/mL. It also gave a concentration at 1 h [16] of 557 ng/mL, a concentration at 1 h [17] of 2940 ng/mL and a concentration at 2 h [18] of 21.7 ng/mL. The concentration at 2 h [19] was 92.9 ng/mL, the concentration at 4 h [20] was 20.3 ng/mL and the concentration at 2 h [21] was 611 ng/mL. The concentration at 4 h [22] was 83.6 ng/mL, the concentration at 4 h [23] was 627 ng/mL and the concentration at 8 h [24] was 5.52 ng/mL. It also gave a concentration at 8 h [25] of 29.1 ng/mL, a concentration at 8 h [26] of 201 ng/mL and a concentration at 24 h [27] of less than 0.5 ng/mL. It also gave a concentration at 24 h [28] of 5 ng/mL, a Cmax [29] of 220 ng/mL and a Cmax [30] of 678 ng/mL. The Cmax [31] was 4060 ng/mL, the Tmax [32] was 30 min and the Tmax [33] was 30 min. The Tmax [34] was 30 min, the half-life [35] was 174 min and the half-life [36] was 204 min. It also gave a half-life [37] of 210 min, an AUC(0-t) at 8 h [38] of 309 ng·h/mL and an AUC(0-t) at 8 h [39] of 1120 ng·h/mL. For the same compound, the AUC(0-t) at 8 h [40] was 6960 ng·h/mL, the AUC(0-inf) [41] was 332 ng·h/mL and the AUC(0-inf) [42] was 1260 ng·h/mL. The AUC(0-inf) [43] was 7970 ng·h/mL, the Activity (Hepatitis C virus [44]) was “inactive” and the IC50 [45] was greater than 30 µM. The IC50 [46] was greater than 30 µM, the IC50 [47] was 10.5 µM and the IC50 (TGF-beta receptor type-1) was 3.2 nM.
